Assay results reported in article PMC4979060, “Structural basis of metallo-β-lactamase, serine-β-lactamase and penicillin-binding protein inhibition by cyclic boronates” (Nature Communications, 2016).
≈ marks a conversion by molar mass, not a printed value. Read-outs that look alike come from different tables or passages of the source.

Legend:
HEK293 cells = test: Cytotoxicity assay (MTS); assay type: cell-based; conditions: human HEK293 cells, concentrations up to 100 μM, 24 h
Procedure: HEK293 cells were seeded (2,000 per well) in normal DMEM in 96-well plates.[34] After 24 h, wells were dosed with titrated concentration of compounds in 1% dimethyl sulphoxide (DMSO)—final volume of media about 100 μl. Following a further 24 h incubation period, 20 μl tetrazolium (MTS, CellTiter96Aqueous One Solution (Promega)) was added to the media in each well. The plate was incubated at 37 °C, 5% CO2 for 4 h in the dark before absorbance was read at 490 nm to determine cell proliferation values.

NDM-1 = biological target: T1, NDM-1 (Klebsiella pneumoniae, UniProt C7C422); test: Fluorogenic β-lactamase inhibition assay (FC-5 substrate), NDM-1; assay type: biochemical; conditions: for IC50: 10 min preincubation
T1 construct: made in house; host or cells: E. coli
Procedure: (§1) Kinetic and inhibition analyses, and ^19F NMR studies[10] against bacterial β-lactamases were performed as described. The FC-5 cephalosporin[9] was used as substrate for BcII, VIM-2, IMP-1, NDM-1, SPM-1, TEM-1 and OXA-10, meropenem[28] for CphA and nitrocefin[34] for PBP 3 and PBP 5.
(§2) In brief IC50 values were determined by preincubation of the appropriate amount of enzyme with the cyclic boronates in the assay buffers for 10 min at room temperature prior to the initiation of the assay by the addition of the appropriate substrate. The enzyme concentrations used are the following: 1 nM BcII, 100 nM VIM-2, 10 nM IMP-1, 10 nM NDM-1, 1 nM SPM-1, 1 nM TEM-1, 1 nM OXA-10, 2.5 nM CphA, 4 μM PBP 3 and 5 μM PBP 5; note that the final concentrations are stated. The assay buffers used are the following: 50 mM HEPES, pH 7.2 supplemented with 1 μg BSA, 1 μg ZnSO4 and 0.01% Triton for BcII, VIM-2, IMP-1, NDM-1 and SPM-1, 15 mM MES, pH 6.5 for CphA, 50 mM HEPES, pH 7.2 supplemented with 200 mM NaCl and 0.01% Triton 100 for TEM-1, 100 mM sodium phosphate, pH 7.2 supplemented with 50 mM NaHCO3 and 0.01% Triton 100 for OXA-10 and 50 mM HEPES, pH 7.2 supplemented with 200 mM NaCl and 0.01% Triton 100 for PBP 3 and PBP 5. The amount of substrates used is the following: 5 μM for BcII, VIM-2, IMP-1, NDM-1 and SPM-1, 10 μM for TEM-1 and OXA-10, 125 μM for CphA and 25 μM for PBP 3 and PBP 5; note that the final concentrations are stated.
(§3) The experiments were performed using a PHERAstar FS microplate reader (BMG Labtech) at room temperature (24–25 °C). All enzymes and inhibitors were prepared in the specific assay buffer. The kinetic values in this study are the means from at least three independent measurements; at least nine different concentrations of the inhibitor were used to determine the kinetic parameters (IC50). The IC50 values were determined using the software package Graph Prism 5.

CphA = biological target: T2, CphA (Aeromonas hydrophila, UniProt P26918); test: B2 MBL inhibition assay (meropenem substrate), CphA; assay type: biochemical, Aeromonas hydrophilia; conditions: for IC50: 10 min preincubation
T2 construct: made in house; host or cells: E. coli
Procedure: as §1, §2, §3

PBP 3 = biological target: T3, PBP 3 (Pseudomonas aeruginosa, UniProt G3XD46); test: PBP inhibition assay (nitrocefin substrate), PBP 3; assay type: biochemical; conditions: NI = no inhibition at 100 μM, read-out: IC50 (μM)/pIC50 (converted)
T3 construct: made in house; host or cells: E. coli
Procedure: as §1, §2, §3

IMP-1 = biological target: T4, IMP-1 (Serratia marcescens, UniProt P52699); test: Fluorogenic β-lactamase inhibition assay (FC-5 substrate), IMP-1; assay type: biochemical
T4 construct: made in house; host or cells: E. coli
Procedure: as §1
In brief IC50 values were determined by preincubation of the appropriate amount of enzyme with the cyclic boronates in the assay buffers for 10 min at room temperature prior to the initiation of the assay by the addition of the appropriate substrate. The enzyme concentrations used are the following: 1 nM BcII, 100 nM VIM-2, 10 nM IMP-1, 10 nM NDM-1, 1 nM SPM-1, 1 nM TEM-1, 1 nM OXA-10, 2.5 nM CphA, 4 μM PBP 3 and 5 μM PBP 5; note that the final concentrations are stated. […]
The experiments were performed using a PHERAstar FS microplate reader (BMG Labtech) at room temperature (24–25 °C). […] The IC50 values were determined using the software package Graph Prism 5.

SPM-1 = SPM-1 (Pseudomonas aeruginosa, UniProt Q8G9Q0); test: Fluorogenic β-lactamase inhibition assay (FC-5 substrate), SPM-1; assay type: biochemical; conditions: for IC50: 10 min preincubation
Procedure: as §1, §2, §3

VIM-2 = biological target: T5, VIM-2 (Escherichia coli, UniProt Q5U7L7); test: Fluorogenic β-lactamase inhibition assay (FC-5 substrate), VIM-2; assay type: biochemical; conditions: for IC50: 10 min preincubation
T5 construct: made in house; host or cells: E. coli
Procedure: as §1, §2, §3

OXA-10 = biological target: T6, OXA-10 (Pseudomonas aeruginosa, UniProt P14489); test: Fluorogenic β-lactamase inhibition assay (FC-5 substrate), OXA-10; assay type: biochemical
T6 construct: made in house; host or cells: E. coli
Procedure: as §1, §2, §3

BcII = biological target: T7, BcII (Bacillus cereus, UniProt P04190); test: Fluorogenic β-lactamase inhibition assay (FC-5 substrate), BcII; assay type: biochemical; conditions: for IC50: 10 min preincubation
T7 construct: made in house; host or cells: E. coli
Procedure: as §1, §2, §3

TEM-1 = biological target: T8, TEM-1 (Escherichia coli, UniProt P62593); test: Fluorogenic β-lactamase inhibition assay (FC-5 substrate), TEM-1; assay type: biochemical; conditions: for IC50: 10 min preincubation
T8 construct: made in house; host or cells: E. coli
Procedure: as §1, §2, §3

K. pneumoniae IR8 = test: microbe, parasite or virus in culture; assay type: cell-based; conditions: Klebsiella pneumoniae, K. pneumoniae IR8
Source text: (§4) Bacterial strains: E. coli ATCC 25922 (ref. [35]) and K. pneumoniae NCTC 5055 (ref. [36]) were used as reference strains. K. pneumoniae Ecl8 (ref. [16]) and its ramR knock-out[37] were used as previously described. K. pneumoniae strain IR8 (ref. [40]), and E. coli strains IR10 and IR60 (ref. [17]) were generous gifts of Prof. T.R. Walsh. Plasmid pSU18:NDM-1 contains the complete blaNDM-1 open reading frame, together with its promoter, cloned into plasmid pSU18 (ref. [41]). The recombinant plasmid was made by PCR amplifying the blaNDM-1 gene and surrounding sequences from E. coli IR10 with primers NDM1F 5′- […] -3′ and NDM1R 5′- GGCGATGACAGCATCATC -3′, TA cloning the amplicon into pCR2.1 TOPO (Invitrogen) and subcloning into pSU18 using BamHI and XbaI.
(§5) MIC values were determined by broth microdilution, in triplicate, in cation-adjusted Mueller Hinton broth (Sigma) according to the Clinical Laboratory Standards Institute (CLSI) guidelines. Experiments were carried out in microtitre plates (Corning) containing the medium plus meropenem (Sequoia Research Products, Pangbourne, UK) and/or inhibitor 2 as appropriate. Chloramphenicol (20 μg ml^−1) was included in assays of strains (K. pneumoniae Ecl8 and derivative) that carried pSU18 plasmids or derivatives (pSU18:NDM-1) to ensure maintenance of plasmids throughout. Inhibitor 2 was dissolved in DMSO to 100 mg ml^−1 and diluted in broth. The final concentration of DMSO in the assays was kept constant at 0.01% (experiments using 10 μg ml^−1 inhibitor) or 0.03% (experiments using 25 μg ml^−1 inhibitor). Plates were incubated overnight at 37 °C for 18–24 h and absorbance at 600 nm read using a Polarstar Omega (BMG LabTech) plate reader.

[1] = system: K. pneumoniae Ecl8 pSU18:NDM-1; test: MIC by broth microdilution and checkerboard; assay type: cell-based; conditions: for MIC: Klebsiella pneumoniae
Source text: as §4, §5

K. pneumoniae Ecl8 pSU18 = test: MIC by broth microdilution; assay type: cell-based; conditions: Klebsiella pneumoniae
Source text: as §4, §5

E. coli IR10 = test: MIC by broth microdilution; assay type: cell-based; conditions: Escherichia coli
Source text: as §4, §5

E. coli IR60 = test: MIC by broth microdilution; assay type: cell-based; conditions: Escherichia coli
Source text: as §4, §5

[2] = system: K pneumoniae Ecl8 ΔramR pSU18:NDM-1; test: MIC by broth microdilution; assay type: cell-based; conditions: Ecl8 ΔramR pSU18:NDM-1; for MIC: Klebsiella pneumoniae; for Meropenem MIC (25 μg ml^−1 2): with 25 μg ml^−1 2
Source text: as §4, §5

[3] = system: K pneumoniae Ecl8 ΔramR pSU18; test: MIC by broth microdilution; assay type: cell-based; conditions: Klebsiella pneumoniae
Source text: as §4, §5

Sequence of SPM-1 (Q8G9Q0 entry or part of it): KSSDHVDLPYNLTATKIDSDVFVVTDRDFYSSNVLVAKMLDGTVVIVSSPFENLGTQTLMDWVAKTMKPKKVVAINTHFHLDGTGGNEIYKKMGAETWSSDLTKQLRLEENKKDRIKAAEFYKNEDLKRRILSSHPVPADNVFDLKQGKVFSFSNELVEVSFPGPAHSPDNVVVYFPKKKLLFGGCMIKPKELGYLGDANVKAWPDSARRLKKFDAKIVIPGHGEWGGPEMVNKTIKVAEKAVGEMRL
T7 sequence (P04190 31-257): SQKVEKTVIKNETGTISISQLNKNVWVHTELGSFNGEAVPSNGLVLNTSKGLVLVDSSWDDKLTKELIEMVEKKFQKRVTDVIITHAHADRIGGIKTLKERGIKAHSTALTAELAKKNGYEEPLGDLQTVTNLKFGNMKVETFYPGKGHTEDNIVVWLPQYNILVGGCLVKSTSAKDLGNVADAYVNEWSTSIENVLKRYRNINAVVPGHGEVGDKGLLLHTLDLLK
T1 sequence (C7C422 29-270, looked up, species assumed): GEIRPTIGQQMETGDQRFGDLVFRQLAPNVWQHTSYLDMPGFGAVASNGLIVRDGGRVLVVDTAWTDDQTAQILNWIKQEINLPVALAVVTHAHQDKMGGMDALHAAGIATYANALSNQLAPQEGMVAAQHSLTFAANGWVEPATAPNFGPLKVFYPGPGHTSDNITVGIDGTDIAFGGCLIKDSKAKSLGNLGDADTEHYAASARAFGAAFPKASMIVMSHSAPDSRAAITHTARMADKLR
T8 sequence (P62593 24-286 limits assumed): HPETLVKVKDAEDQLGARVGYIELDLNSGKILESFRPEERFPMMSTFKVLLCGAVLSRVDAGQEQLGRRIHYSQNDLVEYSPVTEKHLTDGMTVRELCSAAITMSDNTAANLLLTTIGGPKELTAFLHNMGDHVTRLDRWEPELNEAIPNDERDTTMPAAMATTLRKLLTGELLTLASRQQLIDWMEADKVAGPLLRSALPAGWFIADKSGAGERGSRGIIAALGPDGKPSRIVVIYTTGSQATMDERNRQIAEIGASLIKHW
T6 sequence (P14489 20-266, species assumed): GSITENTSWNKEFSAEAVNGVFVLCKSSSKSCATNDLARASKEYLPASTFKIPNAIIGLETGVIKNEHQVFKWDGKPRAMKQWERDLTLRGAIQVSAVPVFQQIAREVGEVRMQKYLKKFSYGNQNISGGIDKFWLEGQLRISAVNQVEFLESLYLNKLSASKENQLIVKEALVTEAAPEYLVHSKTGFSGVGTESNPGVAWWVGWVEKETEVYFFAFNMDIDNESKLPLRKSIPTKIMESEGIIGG
T2 sequence (P26918 28-254): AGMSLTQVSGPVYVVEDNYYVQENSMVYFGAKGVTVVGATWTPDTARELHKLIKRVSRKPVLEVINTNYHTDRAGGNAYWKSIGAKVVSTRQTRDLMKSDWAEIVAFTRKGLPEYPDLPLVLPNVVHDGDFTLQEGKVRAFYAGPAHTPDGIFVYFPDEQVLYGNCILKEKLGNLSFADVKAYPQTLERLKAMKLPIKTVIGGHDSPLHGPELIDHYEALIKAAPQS
T4 sequence (P52699 19-246, looked up, species assumed): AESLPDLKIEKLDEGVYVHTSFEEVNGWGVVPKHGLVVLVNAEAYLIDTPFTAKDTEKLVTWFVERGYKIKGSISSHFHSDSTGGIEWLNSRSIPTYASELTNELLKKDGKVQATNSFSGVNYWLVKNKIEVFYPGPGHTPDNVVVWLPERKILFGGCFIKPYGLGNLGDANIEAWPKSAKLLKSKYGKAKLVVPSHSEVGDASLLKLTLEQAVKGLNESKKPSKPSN
T3 sequence (G3XD46 whole entry): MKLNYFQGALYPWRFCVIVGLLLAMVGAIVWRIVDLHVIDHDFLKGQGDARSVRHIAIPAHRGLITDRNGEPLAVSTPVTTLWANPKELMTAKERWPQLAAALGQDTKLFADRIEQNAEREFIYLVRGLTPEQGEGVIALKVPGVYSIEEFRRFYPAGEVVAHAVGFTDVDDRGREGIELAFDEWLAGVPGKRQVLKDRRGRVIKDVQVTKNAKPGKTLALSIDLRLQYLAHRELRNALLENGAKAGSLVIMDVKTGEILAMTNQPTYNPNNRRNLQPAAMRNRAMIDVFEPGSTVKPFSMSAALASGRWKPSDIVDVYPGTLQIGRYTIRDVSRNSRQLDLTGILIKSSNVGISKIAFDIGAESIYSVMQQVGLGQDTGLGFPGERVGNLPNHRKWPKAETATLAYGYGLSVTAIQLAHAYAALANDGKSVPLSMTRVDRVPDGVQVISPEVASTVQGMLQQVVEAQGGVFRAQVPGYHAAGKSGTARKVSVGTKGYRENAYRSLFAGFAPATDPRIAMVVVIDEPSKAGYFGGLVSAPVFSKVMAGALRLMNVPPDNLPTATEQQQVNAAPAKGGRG

O=C(O)c1cccc2c1O[B-](O)(O)[C@@H](NC(=O)C1CCCCC1)C2 [compound 1]
cytotoxicity (HEK293 cells): Neither 1 nor 2 showed cytotoxicity
pIC50 (NDM-1): 5.7
IC50 (NDM-1): 2040 nM
pIC50 (CphA): 5.3
IC50 (CphA): 4.42 µM
IC50 (PBP 3): > 100 µM
pIC50 (IMP-1): 4.6
pIC50 (SPM-1): 4.6
IC50 (SPM-1): 24.1 µM
pIC50 (VIM-2): 7.3
IC50 (VIM-2): 51 nM
pIC50 (OXA-10): 6.4
pIC50 (BcII): 5.1
IC50 (BcII): 7.27 µM
pIC50 (TEM-1): 8.9
IC50 (TEM-1): 1 nM

O=C(N[C@H]1Cc2cccc(C(=O)O)c2O[B-]1(O)O)c1ccc(CN2CCNCC2)cc1 [compound 4]
IC50 (NDM-1): 40 nM
pIC50 (CphA): > 4
IC50 (CphA): > 100 µM
IC50 (PBP 3): > 100 µM
pIC50 (IMP-1): 4.7
pIC50 (SPM-1): 4.8
IC50 (SPM-1): 13.9 µM
pIC50 (VIM-2): 7.8
IC50 (VIM-2): 14 nM
pIC50 (OXA-10): 5.6
IC50 (OXA-10; 10 min preincubation): 2260 nM
pIC50 (BcII): 6.2
IC50 (BcII): 0.52 µM
pIC50 (TEM-1): 9.4
IC50 (TEM-1): 0.3 nM

C[C@@H](O)[C@H]1C(=O)N2C(C(=O)O)=C(S[C@@H]3CN[C@H](C(=O)N(C)C)C3)[C@H](C)[C@H]12 [Meropenem, meropenem]
MIC (K. pneumoniae IR8; meropenem alone, read-out: Meropenem MIC): 128 µg/mL (≈ 334 µM)
MIC (K. pneumoniae IR8; with 10 μg ml^−1 2, read-out: Meropenem MIC (10 μg ml^−1 2)): 32 µg/mL (≈ 83.4 µM)
MIC (K. pneumoniae IR8; with 25 μg ml^−1 2, read-out: Meropenem MIC (25 μg ml^−1 2)): 16 µg/mL (≈ 41.7 µM)
MIC ([1]; read-out: Meropenem MIC (10 μg ml^−1 2), with 10 μg ml^−1 2, Ecl8 pSU18:NDM-1): 8 µg/mL
MIC ([1]; read-out: Meropenem MIC (25 μg ml^−1 2), with 25 μg ml^−1 2, Ecl8 pSU18:NDM-1): < 8 µg/mL
MIC ([1]; read-out: Meropenem MIC, checkerboard, 2 at 0 μg mL-1): 128 µg/mL
MIC ([1]; read-out: Meropenem MIC, checkerboard, 2 at 0.5 μg mL-1): 64 µg/mL
MIC ([1]; read-out: Meropenem MIC, checkerboard, 2 at 1 μg mL-1): 32 µg/mL
MIC ([1]; read-out: Meropenem MIC, checkerboard, 2 at 2 μg mL-1): 32 µg/mL
MIC ([1]; read-out: Meropenem MIC, checkerboard, 2 at 4 μg mL-1): 16 µg/mL
MIC ([1]; read-out: Meropenem MIC, checkerboard, 2 at 8 μg mL-1): 8 µg/mL
MIC ([1]; read-out: Meropenem MIC, checkerboard, 2 at 16 μg mL-1): 4 µg/mL
MIC ([1]; read-out: Meropenem MIC, checkerboard, 2 at 32 μg mL-1): 2 µg/mL
MIC ([1]; read-out: Meropenem MIC, checkerboard, 2 at 64 μg mL-1): ≤ 1 µg/mL
MIC ([1]; read-out: Meropenem MIC, meropenem alone, Ecl8 pSU18:NDM-1): > 128 µg/mL
Meropenem MIC (25 μg ml^−1 2) ([1]; with 25 μg ml^−1 2, Ecl8 pSU18:NDM-1): 4 µg/mL
MIC (K. pneumoniae Ecl8 pSU18; ECL8PSU18, read-out: Meropenem MIC): ≤ 0.25 µg/mL
MIC (K. pneumoniae Ecl8 pSU18; ECL8PSU18, read-out: Meropenem MIC (10 μg ml^−1 2)): ≤ 0.25 µg/mL
MIC (K. pneumoniae Ecl8 pSU18; ECL8PSU18, read-out: Meropenem MIC (25 μg ml^−1 2)): ≤ 0.25 µg/mL
MIC (E. coli IR10; IR10, read-out: Meropenem MIC): 128 µg/mL (≈ 334 µM)
MIC (E. coli IR10; IR10, read-out: Meropenem MIC (10 μg ml^−1 2)): 8 µg/mL (≈ 20.9 µM)
MIC (E. coli IR10; IR10, read-out: Meropenem MIC (25 μg ml^−1 2)): 2 µg/mL (≈ 5.22 µM)
MIC (E. coli IR60; IR60, read-out: Meropenem MIC): 64 µg/mL (≈ 167 µM)
MIC (E. coli IR60; IR60, read-out: Meropenem MIC (10 μg ml^−1 2)): 16 µg/mL (≈ 41.7 µM)
MIC (E. coli IR60; IR60, read-out: Meropenem MIC (25 μg ml^−1 2)): 16 µg/mL (≈ 41.7 µM)
MIC ([2]; read-out: Meropenem MIC (10 μg ml^−1 2), with 10 μg ml^−1 2): 16 µg/mL (≈ 41.7 µM)
MIC ([2]; read-out: Meropenem MIC, meropenem alone): > 128 µg/mL
Meropenem MIC (25 μg ml^−1 2) [2]: 2 µg/mL
Meropenem MIC (25 μg ml^−1 2) ([2]; listed as meropenem): < 8 µg/mL
MIC ([3]; read-out: Meropenem MIC): ≤ 0.25 µg/mL
MIC ([3]; read-out: Meropenem MIC (10 μg ml^−1 2)): ≤ 0.25 µg/mL
MIC ([3]; read-out: Meropenem MIC (25 μg ml^−1 2)): ≤ 0.25 µg/mL
